Data taken from PMC8253220, “Molecular design, synthesis and in vitro biological evaluation of thienopyrimidine–hydroxamic acids as chimeric kinase HDAC inhibitors: a challenging approach to combat cancer” (Journal of Enzyme Inhibition and Medicinal Chemistry, 2021).

How the values were obtained:
VEGFR-2 = VEGFR-2 (Homo sapiens, UniProt P35968); assay: In vitro VEGFR-2 tyrosine kinase inhibitory assay (Z'-LYTE, SelectScreen); format: biochemical; conditions: 10 µM single dose
Method: The target compounds were evaluated for their in vitro inhibitory activities against EGFR, VEGFR-2, and HDAC6. The EGFR and VEGFR-2 inhibitory assays were performed at Thermo Fischer Scientific, Madison, WI, USA (SelectScreenServices@thermofisher.com). The HDAC inhibitory assays were performed at BPS Bioscience, San Diego, CA, USA (www.bpsbioscience.com). Initially, all of the synthesised target compounds were evaluated for their percent inhibitory activity against EGFR, VEGFR-2, and HDACs at 10 µM single dose concentration, in which their mean percent inhibition is summarised in (Figure 5, Tables 1 and [2]). Representative compounds were evaluated for their percent inhibitory activity against EGFR and VEGFR-2 at 6 different concentrations (0.1 nM, 1 nM, 10 nM, 100 nM, 1 µM, 10 µM) to subsequently calculate their IC50 values (Table 3). Additionally, all of the synthesised target compounds were submitted to the National Cancer Institute “NCI” Bethesda, Maryland, USA (www.dtp.nci.nih.gov), to evaluate theirs in vitro antiproliferative activities against NCI 60- cancer cell line panel.
In vitro enzyme inhibition determination for the synthesised compounds was carried out in Thermo Fischer Scientific, Madison, WI, USA (SelectScreenServices@thermofisher.com). The EGFR and VEGFR-2 tyrosine kinase % inhibitory activity at a single-dose concentration of 10 µM was performed initially then representative compounds were evaluated at single-dose concentrations of (0.1 nM, 1 nM, 10 nM, 100 nM, 1 µM) using ZYLTE technology. A fluorescence-based, coupled-enzyme format is employed in the biochemical assay and depends on the sensitivity of proteolytic cleavage to non-phosphorylated and phosphorylated peptides. Then IC50 values for selected compounds were determined by GraphPad Prism at Misr international university.

VEGFR-2, sequence (P35968 20-1356): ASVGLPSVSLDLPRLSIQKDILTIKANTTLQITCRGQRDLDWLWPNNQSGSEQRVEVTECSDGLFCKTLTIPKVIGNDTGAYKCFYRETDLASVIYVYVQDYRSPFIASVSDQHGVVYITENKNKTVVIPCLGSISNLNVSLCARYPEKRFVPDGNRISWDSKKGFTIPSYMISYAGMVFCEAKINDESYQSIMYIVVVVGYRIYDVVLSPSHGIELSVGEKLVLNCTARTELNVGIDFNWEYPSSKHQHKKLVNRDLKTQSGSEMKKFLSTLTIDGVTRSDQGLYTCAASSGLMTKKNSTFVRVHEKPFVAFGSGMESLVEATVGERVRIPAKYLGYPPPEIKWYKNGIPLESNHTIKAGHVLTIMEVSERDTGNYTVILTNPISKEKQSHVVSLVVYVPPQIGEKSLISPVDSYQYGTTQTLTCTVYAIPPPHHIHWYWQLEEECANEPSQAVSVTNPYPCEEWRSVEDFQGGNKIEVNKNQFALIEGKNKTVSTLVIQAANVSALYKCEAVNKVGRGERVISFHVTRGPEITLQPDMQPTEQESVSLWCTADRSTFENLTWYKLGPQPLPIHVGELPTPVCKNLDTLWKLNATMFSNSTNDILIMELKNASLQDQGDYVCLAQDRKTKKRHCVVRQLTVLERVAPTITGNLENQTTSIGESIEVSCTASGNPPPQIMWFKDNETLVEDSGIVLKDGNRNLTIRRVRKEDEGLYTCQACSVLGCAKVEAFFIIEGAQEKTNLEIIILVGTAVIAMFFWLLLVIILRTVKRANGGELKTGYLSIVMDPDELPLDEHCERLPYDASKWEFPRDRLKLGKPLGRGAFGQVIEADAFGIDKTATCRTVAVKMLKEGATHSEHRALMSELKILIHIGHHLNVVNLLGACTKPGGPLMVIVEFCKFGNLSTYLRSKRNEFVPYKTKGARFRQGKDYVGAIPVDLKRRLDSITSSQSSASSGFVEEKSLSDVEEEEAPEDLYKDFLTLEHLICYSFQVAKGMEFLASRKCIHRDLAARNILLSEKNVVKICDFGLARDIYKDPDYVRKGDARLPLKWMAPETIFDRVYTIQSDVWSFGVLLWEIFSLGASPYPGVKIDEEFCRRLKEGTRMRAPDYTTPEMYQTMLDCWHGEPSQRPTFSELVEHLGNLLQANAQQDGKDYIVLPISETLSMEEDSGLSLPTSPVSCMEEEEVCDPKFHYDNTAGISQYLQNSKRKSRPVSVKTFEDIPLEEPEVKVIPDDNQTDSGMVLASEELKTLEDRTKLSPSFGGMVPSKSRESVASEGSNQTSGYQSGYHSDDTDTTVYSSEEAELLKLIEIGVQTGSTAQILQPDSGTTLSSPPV

| Compound | melting point [°C] | inhibition at 10 µM (VEGFR-2) [%] |
| --- | --- | --- |
| CCOC(=O)c1sc2ncnc(Nc3ccc(NC(=O)Nc4ccccc4)cc3)c2c1C [Compound 6a, Ethyl 5-methyl-4–(4-(3-phenylureido)phenylamino)thieno[2,3-d]pyrimidine-6-carboxylate] | 319 to 322 |  |
| CCOC(=O)c1sc2ncnc(Nc3ccc(NC(=O)Nc4cccc(OC)c4)cc3)c2c1C [Compound 6b, Ethyl 4–(4-(3–(3-methoxyphenyl)ureido)phenylamino)-5-methylthieno[2,3-d]pyrimidine-6-carboxylate] | 220 to 222 |  |
| CCOC(=O)c1sc2ncnc(Nc3ccc(NC(=O)Nc4cccc(C(F)(F)F)c4)cc3)c2c1C [Compound 6c, Ethyl 4–(4-(3–(3-trifluromethyphenyl)ureido)phenylamino)-5-methylthieno[2,3-d]pyrimidine-6-carboxylate] | 305 to 307 |  |
| CCOC(=O)c1sc2ncnc(Nc3ccc(NC(=S)Nc4ccccc4)cc3)c2c1C [Compound 6d, Ethyl 5-methyl-4–(4-(3-phenylthioureido)phenylamino)thieno[2,3-d]pyrimidine-6-carboxylate] | 173 to 175 |  |
| CCOC(=O)CCNC(=O)c1sc2ncnc(Nc3ccc(NC(=O)Nc4cccc(OC)c4)cc3)c2c1C [Compound 9b, Ethyl 3–(4-(4–(3-(3-methoxyphenyl)ureido)phenylamino)-5-methylthieno[2,3-d]pyrimidine-6-carboxamido)propanoate] | 250 |  |
| CCOC(=O)CCNC(=O)c1sc2ncnc(Nc3ccc(NC(=O)Nc4cccc(C(F)(F)F)c4)cc3)c2c1C [Compound 9c, Ethyl 3–(5-methyl-4–(4-(3(3(trifluoromethyl)phenyl)ureido)phenylamino)thieno[2,3-d]pyrimidine-6-carboxamido)propanoate] | 220 |  |
| CCOC(=O)CCCNC(=O)c1sc2ncnc(Nc3ccc(NC(=O)Nc4ccccc4)cc3)c2c1C [Compound 10a, Ethyl 4–(5-methyl-4–(4-(3-phenylureido)phenylamino)thieno[2,3-d]pyrimidine-6-carboxamido)butanoate] | 219 to 221 |  |
| CCOC(=O)CCCNC(=O)c1sc2ncnc(Nc3ccc(NC(=O)Nc4cccc(C(F)(F)F)c4)cc3)c2c1C [Compound 10c, Ethyl 4–(5-methyl-4–(4-(3–(3(trifluoromethyl)phenyl)ureido)phenylamino)thieno[2,3-d]pyrimidine-6-carboxamido)butanoate] | 197 to 199 |  |
| CCOC(=O)c1sc2ncnc(Nc3ccc4[nH]cnc4c3)c2c1C [Compound 14a, Ethyl 4-(1H-benzo[d]imidazol-5-ylamino)-5-methylthieno[2,3-d]pyrimidine-6-carboxylate.] | 250 to 251 |  |
| CCOC(=O)c1sc2ncnc(Nc3ccccc3)c2c1C [Compound 14b, Ethyl 5-methyl-4-(phenylamino)thieno[2,3-d]pyrimidine-6-carboxylate] | 170 to 172 |  |
| CCOC(=O)c1sc2ncnc(Nc3ccc(Cl)cc3)c2c1C [Compound 14c, Ethyl 4–(4-chlorophenylamino)-5-methylthieno[2,3-d]pyrimidine-6-carboxylate] | 174 to 176 |  |
| CCOC(=O)c1sc2ncnc(Nc3ccc(F)c(Cl)c3)c2c1C [Compound 14d, Ethyl 4–(3-chloro-4-fluorophenylamino)-5-methylthieno[2,3-d]pyrimidine-6-carboxylate] | 154 to 156 |  |
| CCOC(=O)CCNC(=O)c1sc2ncnc(Nc3ccccc3)c2c1C [Compound 17b, Ethyl 3–(5-methyl-4-(phenylamino)thieno[2,3-d]pyrimidine-6-carboxamido)propanoate] | 206 |  |
| CCOC(=O)CCNC(=O)c1sc2ncnc(Nc3ccc(Cl)cc3)c2c1C [Compound 17c] | 202 | 87 |
| CCOC(=O)CCNC(=O)c1sc2ncnc(Nc3ccc(F)c(Cl)c3)c2c1C [Compound 17d, Ethyl 3–(4-(3-chloro-4-fluorophenylamino)-5-methylthieno[2,3-d]pyrimidine-6-carboxamido)propanoate] | 184 |  |
| CCOC(=O)CCCNC(=O)c1sc2ncnc(Nc3ccccc3)c2c1C [Compound 18b, Ethyl 4–(5-methyl-4-(phenylamino)thieno[2,3-d]pyrimidine-6-carboxamido)butanoate] | 145 to 147 |  |
| CCOC(=O)CCCNC(=O)c1sc2ncnc(Nc3ccc(Cl)cc3)c2c1C [Compound 18c, Ethyl 4–(4-(4-chlorophenylamino)-5-methylthieno[2,3-d]pyrimidine-6-carboxamido)butanoate] | 138 |  |
| CCOC(=O)CCCNC(=O)c1sc2ncnc(Nc3ccc(F)c(Cl)c3)c2c1C [Compound 18d, Ethyl 4–(4-(3-chloro-4-fluorophenylamino)-5-methylthieno[2,3-d]pyrimidine-6-carboxamido)butanoate] | 131 to 133 |  |
